In ChEMBL document CHEMBL3632564, “Synthesis of 17-membered azalides from a 16-membered macrolide utilizing amide-selective silane reduction” (2015):
In brackets after ≈: the same amount, converted by molar mass.

Tests used:
Assay type in all cases: functional
Streptococcus pneumoniae [1] = assay: Antibacterial activity against penicillin-susceptible Gram-positive Streptococcus pneumoniae S-223 after 18 hrs by agar dilution method; conditions: S-223, 18 h
Streptococcus pneumoniae [2] = assay: Antibacterial activity against penicillin-intermediate Gram-positive Streptococcus pneumoniae TY-5745 after 18 hrs by agar dilution method; conditions: TY-5745, 18 h
Streptococcus pneumoniae [3] = assay: Antibacterial activity against penicillin-resistant Gram-positive Streptococcus pneumoniae JPS317 after 18 hrs by agar dilution method; conditions: JPS317, 18 h
Haemophilus influenzae = assay: Antibacterial activity against beta-lactamase-negative ampicillin-resistant Gram-negative Haemophilus influenzae ME587 after 18 hrs by agar dilution method; conditions: ME587, 18 h

| SMILES | MIC (Streptococcus pneumoniae [1]) [µg/mL] | MIC (Streptococcus pneumoniae [2]) [µg/mL] | MIC (Streptococcus pneumoniae [3]) [µg/mL] | MIC (Haemophilus influenzae) [µg/mL] |
| --- | --- | --- | --- | --- |
| CC[C@H]1OC(=O)CC[C@H](C)[C@@H](O[C@@H]2O[C@H](C)C[C@H](N(C)C)[C@H]2O)[C@@H](CC=O)C[C@@H](C)CN(C)CC/C(C)=C/[C@@H]1CO | 8 (≈ 13.7 µM) | 16 (≈ 27.5 µM) | 8 (≈ 13.7 µM) | 4 (≈ 6.86 µM) |
| CC[C@H]1OC(=O)CC[C@H](C)[C@@H](O[C@@H]2O[C@H](C)C[C@H](N(C)C)[C@H]2O)[C@@H](CC=O)C[C@@H](C)N(C)CCC/C(C)=C/[C@@H]1CO | 8 (≈ 13.7 µM) | 32 (≈ 54.9 µM) | 8 (≈ 13.7 µM) | 4 (≈ 6.86 µM) |
| CC[C@H]1OC(=O)CC[C@H](C)[C@@H](O[C@@H]2O[C@H](C)C[C@H](N(C)C)[C@H]2O)[C@@H](CC=O)C[C@@H](C)N(C)C/C=C/C(C)=C/[C@@H]1CO | 16 (≈ 27.5 µM) | 32 (≈ 55.1 µM) | 32 (≈ 55.1 µM) | 4 (≈ 6.89 µM) |
| CC[C@H]1OC(=O)CC[C@H](C)[C@@H](O[C@@H]2O[C@H](C)C[C@H](N(C)C)[C@H]2O)[C@@H](CC=O)C[C@@H](C)C(=O)/C=C/C(C)=C/[C@@H]1CO | 0.25 (≈ 0.442 µM) | 1 (≈ 1.77 µM) | 0.5 (≈ 0.884 µM) | 1 (≈ 1.77 µM) |
| CC[C@H]1OC(=O)[C@H](C)[C@@H](O[C@H]2C[C@@](C)(OC)[C@@H](O)[C@H](C)O2)[C@H](C)[C@@H](O[C@@H]2O[C@H](C)C[C@H](N(C)C)[C@H]2O)[C@](C)(O)C[C@@H](C)CN(C)[C@H](C)[C@@H](O)[C@]1(C)O [AZITHROMYCIN] | 0.25 (≈ 0.334 µM) | 1 (≈ 1.34 µM) | 8 (≈ 10.7 µM) | 1 (≈ 1.34 µM) |
